Peptide text beside a SMILES is read from it.
How the values were obtained:
RBL-2H3/ETFR cells = experiment: RBL-2H3/ETFR cell proliferation, xCELLigence; assay type: cell-based, rat; conditions: 10 μM peptide, up to 90 hours, medium replaced every 24 hours, quadruplicate
[1] = system: GFP-tagged THP-1 cells on endothelial monolayer (HUVECs); experiment: Monocyte diapedesis: GFP-tagged THP-1 cells on HUVEC monolayer; assay type: cell-based, human; conditions: 10 nM peptide, 30 minutes, 37°C, 10 fields/slide
Excerpt: Diapedesis of leukocytes plays a key role in the pathogenesis of inflammatory diseases and migration of monocytes from the blood into the sub-endothelial space is one of the earliest events. We investigated the effects of [SRSRY] on the number and morphology of THP-1 seeded to an endothelial monolayer. […] (Fig 5A). To examine the changes in morphology in more detail and quantify monocytes interacting with endothelial monolayer, we performed a subset of experiments using GFP-tagged THP-1, labeling co-cultures for F-actin and recording images by a confocal microscope. […] To further ascertain if [SRSRY] reduces trans-endothelial migration of monocytes, the ability of THP-1 cells to cross an endothelial monolayer was analyzed using the xCELLigence RTCA technology as previously described. […] At this time, reduction of impedance values, due to invading cells that interrupt monolayers was monitored in real-time for 10 hours. […]
Fig 5 [SRSRY] prevents trans-endothelial migration of THP-1 cells. […] Representative images of co-cultures analyzed by phase contrast microscopy at 100x with Scale bar: 50 μm (A) or stained with rhodamine- phalloidin and recorded by a confocal microscope (z-series with 0.25 μm intervals) at 630x with Scale bar: 10 μm (B). […] Fluorescent THP-1 cells which were adherent on the endothelial monolayer were counted on 10 fields/slide at 200x magnification. […]

## N=C(N)NCCC[C@@H]1NC(=O)[C@H](CO)NC(=O)[C@H](Cc2ccc(O)cc2)NC(=O)[C@H](CCCNC(=N)N)NC(=O)[C@H](CO)NC1=O [[SRSRY], [Ser-Arg-Ser-Arg-Tyr]] (cyclo(RSRYS))
RBL-2H3/ETFR cells
  RBL-2H3/ETFR cell growth: did not modify cell growth up to 90 hours
[1]
  reduction of GFP-THP-1 cell number interacting with endothelial monolayer: 40%

Reference: paper PMC4418665, “Cyclization of the Urokinase Receptor-Derived Ser-Arg-Ser-Arg-Tyr Peptide Generates a Potent Inhibitor of Trans-Endothelial Migration of Monocytes” (PLoS ONE, 2015)
